The values that follow come from patent publication US9801918B2, “Methods of treatment using extracts of Anisomeles heyneana” (Council of Scientific & Industrial Research, priority 2011, dated 2017).

For assay [1], the system named is human monocytic leukaemia Thp-1 cell lines. As to the kind of experiment: Anti proliferative activity-MTT cell proliferation assay on human Thp-1 cell line. In kind it is cell-based. The following applies: for % Inhibition on Thp-1 cell line at 100 μg/ml / inhibition at 100 µg/mL: 72 h, MTT, average±standard deviation, triplicate, 100 μg/ml; for inhibition at 100 µg/mL: Homo sapiens, THP-1, 72 h.

Another assay relates to M. tuberculosis. As to the kind of experiment: Anti-mycobacterial activity (inhibition of growth of M. tuberculosis). The format is cell-based. The following applies: concentration exhibiting 90% inhibition against growth of M. tuberculosis, 'Not active' at 100 μg/ml; for IC90: Mycobacterium tuberculosis, read-out: IC90 value determined against M. tuberculosis.

A word on the IC90: it is the point of the concentration-response curve where the effect stands at 90%. Usually inhibition stands for the relative decrease from the control value, in per cent. High values mean strong suppression, low ones little suppression.

In brackets after ≈: the same amount, converted by molar mass.

`C=C1C(=O)O[C@H]2/C=C(\C)C[C@@H]3C=C(CC/C=C(\C)CC[C@H]12)C(=O)O3` [Compound 1, (1R,3E,5S,9R,12E)-3,12-Dimethyl-8-methylene-6,18-dioxatricyclo[14.2.1.05,9]nonadeca-3,12,16(19)-triene-7,17-dione]: the “% Inhibition on Thp-1 cell line at 100 μg/ml” value in assay [1] is given as 96.4 ± 0.4592%. The 90% effect concentration (IC90) with M. tuberculosis is 6.53 mg/L (≈ 19.9 µM).
As to `C[C@]12CCC[C@](C)(C(=O)O)[C@@H]1CC[C@@]13C[C@@H](CC[C@@H]12)[C@@](O)(CO)C3` [Compound 2, phyllocladan-16α,17-dihydroxy-19-oic acid], in assay [1], the “% Inhibition on Thp-1 cell line at 100 μg/ml” value is given as 59.02 ± 0.8725% and the inhibition at 100 µg/mL was in the range of 59 to 97%. For the same compound, the “anti proliferative activity (in words)” value in assay [1] (qualitative statement) is given as “comparable to well known drug, paclitaxel”. Moreover, in the assay on M. tuberculosis, the “IC90 value determined against M. tuberculosis” value is reported as “Not active^c”.
As to `NNC(=O)c1ccncc1` [Isoniazid, reference compound], the IC90 with M. tuberculosis was determined as 0.05 ± 0.003 mg/L (≈ 0.365 µM).
In turn, `CC(=O)O[C@H]1C(=O)[C@@]2(C)[C@H]([C@H](OC(=O)c3ccccc3)[C@]3(O)C[C@H](OC(=O)[C@H](O)[C@@H](NC(=O)c4ccccc4)c4ccccc4)C(C)=C1C3(C)C)[C@]1(OC(C)=O)CO[C@@H]1C[C@@H]2O` [Paclitaxel, reference compound] yielded an inhibition at 100 µg/mL in assay [1] of 61%.
